In experiment [1] the test system is MDA-MB-231, MDA-MB-468, and T47D cells. Put plainly: Transwell cell migration assay. The experiment is classed as cell-based, human. The following applies: 100 μM, 12 hours. The method, then:
Cell migration assay was performed following the procedure described previously (26). In brief, the upper insert chambers (8-μm pore polycarbonate membrane) were seeded with cells at a density of 5×10^4 cells (cell numbers established by preliminary experiments) per well in the appropriate serum-free medium. A 10% FBS-containing media was then added to the lower chamber to serve as a chemoattractant. […] The photographs were used to count the number of migrated cells in Adobe Photoshop.

Experiment [2] has the same test system. Put plainly: Matrigel cell invasion assay. The experiment is classed as cell-based, human. The following applies: 100 μM, 48 hours, Matrigel coated membrane. Here is the method: The invasive and metastatic potential of cell lines was tested by transmigration through an extracellular matrix (ECM) by a previously described method (26). In brief, the upper chamber of the matrix in 24-well Matrigel invasion chamber plates (BD BioCoat™ Matrigel™ Chamber, BD Biosciences, San Jose, CA) was loaded with 5×10^4 cells in 500 μl of the appropriate medium (cell numbers established by preliminary experiments). After 24 hours, medium containing 1% FBS was used on both the lower and upper surfaces. One day later, the medium of the upper chamber was replaced with 500 μl medium containing 1% FBS without any drug treatment. The medium was replaced with medium containing 10% FBS and 25 ng/ml EGF in the lower chamber. The effect of beta-adrenergic and opioidergic drugs was tested by adding a 100 μM concentration of these drugs alone or in combination or vehicle alone in both lower and upper chambers. After 48 hours of incubation, the noninvasive cells that remained within the inserts were removed with a cotton swab. Cells that traversed through the Matrigel and the polycarbonate filter (8-μm pore size) attached to the lower surface were stained with 0.5% crystal violet for calculating the invasion index. Cells were visualized and photographed as described in the migration assay. The photographs were used to count invasive cells in Adobe Photoshop.

Experiment [3] has as its system NK cells, monocytes and macrophages in PBMC and spleen. Put plainly: Flow cytometry of immune cells in PBMC and spleen of xenografted rats. The experiment is classed as in vivo, rat. The note with it: for NK cell numbers in PBMC and spleen: CD161a+ NK cells, flow cytometry. The method, then: Peripheral blood mononuclear cells (PBMC) from control and drug-treated rats were isolated from freshly obtained EDTA whole blood by density gradient purification (Lymphoprep™, Stemcell Technologies™, Vancouver, BC, Canada) using 15 mL SepMate™ tubes (Stemcell Technologies™) as per the manufacture's protocol. The pelleted cells (PBMC) were counted in a hemocytometer and assayed for viability by the trypan blue dye exclusion method. PBMC cell pellets from 3 animals in each group were pooled, washed three times with PBS, and finally resuspended in 2 ml RPMI medium containing 10% heat-inactivated FBS (HI-FBS) and used for NK cell cytotoxicity. Aliquots of PBMC were frozen down at −80° C. by resuspending cells in freezing media containing HI-FBS and 10% DMSO in aliquots of 5-10×10^6 cells/mL using Nalgene Mr. Frosty Cryo 1° C. freezing containers (Thermo Fisher Scientific) before storage in liquid nitrogen. For flow cytometric analysis, frozen PBMC was thawed and resuspended in RPMI-1640 and was evaluated for viability by trypan blue, and all were […], then washed with PBS before starting flow cytometer experiments.
Tumor-infiltrating immune cells were collected from MDA-MB-231 cell xenograft tumors to examine and compare the immune cell population among control and drug-treated animals. Briefly, single-cell suspensions of tumor tissue were achieved by mincing the tissue with a scalpel blade using a crisscross method, ground with 1-ml of ACK lysing buffer to remove red blood cells. The cell suspensions were filtered through a 70-micron sieve and then washed with PBS. Cells from the tumor were collected and dispersed with 100 μl of PBS and stained by the addition of fluorescence-conjugated antibodies. For flow cytometry experiments, single-cell suspension derived from tumors, PBMC, and splenocytes were used to characterize the immune cell population. Fluorophore-conjugated antibodies were used to detect surface markers of specific cell types and markers are as follows: for NK cells (CD161a (10/78)), tissue macrophage (RT1B (OX-6)), dendritic cells (CD103 (OX-62)), peripheral monocytes (CD11b (ED8)), B cells (CD45RA (OX-33)), and DAPI (Sigma) was used to exclude dead cells.
Immune cells from the tumor, PBMC, and splenocyte samples were examined by following the gating strategy as described below. First, side scatter area (SSC-A) versus forward scatter area (FSC-A) were used to exclude cellular debris, then forward scatter height (FSC-H) versus FSC-A were used to select single cells. […] Additional negative controls (isotype control and fluorescence minus one (FMO)) were also used to determine any non-specific binding in the present study. The data collected from each sample were exported and analyzed using FlowJo™ version 10.7.
On the technique in general: A flow cytometer gives signals particle by particle.

The test system of experiment [4] is MDA-MB-231 cells. Put plainly: Clonogenic (colony formation) assay. The experiment is classed as cell-based, human. The following applies: 100 μM, 14 days. Here is the method:
The clonogenic assay was performed as previously described (25). Briefly, cells were suspended in culture media and were seeded into 6-well tissue culture plates at a density of 1,000 cells/well, allowed to adhere overnight, and treated with vehicle alone or a 100 μM concentration of beta-adrenergic and opioidergic drugs alone or in combination. Fresh medium and drugs were changed every 3 or 4 days for 14 days. At the end of the experiment, the cell colonies were stained with 0.5% crystal violet, subjected to image acquisition, and quantified in Adobe Photoshop (Adobe Systems, San Jose, CA). The crystal violet-stained cell colonies were extracted with 10% acetic acid and used for optical density (OD) measurements for determination of colony growth. Drug effects on these cells were determined in duplicate wells in three independent experiments.

In experiment [5] the test system is MDA-MB-231-cell-derived xenografts. Put plainly: Survival study of nude rats inoculated with MDA-MB-231 cells. In kind it is in vivo, rat. The following applies: Kaplan-Meier; control animals about 28 days. The method, then:
For the following study and survival study, MDA-MB 231 cells (ATCC) were grown until about 90% confluence just 1 day before injection. On the day of injection, after checking cell viability with trypan blue, MDA-MB 231 cells were diluted in PBS at a final concentration of 1×10^7 cells/rat in 200-μl of PBS-50% Matrigel (BD Biosciences, San Jose, CA) mixture and injected subcutaneously (SC) into the right flank of the rats. […] Tumor shrinkage/growth was measured in animals daily and animal weights were measured every other day. […] Three dimensions of tumor were measured using electronic calipers, and tumor volumes were calculated by the formula L×W^2/2. The mean±SEM of tumor volume was calculated weekly for each experimental group, and the data are expressed as mean absolute tumor volume. After the animals were sacrificed, the subcutaneous tumors were excised intact from the rats to determine the tumor weight in grams and photographed to visualize differences in tumor morphology and compare size. A portion of the excised tumors was snap-frozen by immersion in liquid nitrogen and stored at −80° C. until further use.
The animals were treated with the same drug treatment regimens and euthanized as described previously. […] At the endpoint (prior to the onset of death), the animals were euthanized, and the survival curves were plotted in a Kaplan-Meier survival curve.

As to `CC1(C)SSC(C)(C)[C@@H](NC(=O)[C@@H](N)Cc2ccc(O)cc2)C(=O)NCC(=O)N[C@@H](Cc2ccccc2)C(=O)N[C@H]1C(=O)O` [DPDPE, (D-Pen^2, D-Pen^5)-enkephalin], the cell migration result in experiment [1] was “significant but moderate inhibitory effects”. In experiment [2], the cell invasion result was “decreased cell invasion”. The “NK cell numbers in PBMC and spleen” value in experiment [3] is “increased”. The colony formation entry in experiment [4] was “moderate inhibition”. The “mean life span (survival)” value in experiment [5] came to 40 days.
For the molecule `O=C1CC[C@@]2(O)[C@H]3Cc4ccc(O)c5c4[C@@]2(CCN3CC2CC2)[C@H]1O5` [NTX, 17-(cyclopropylmethyl)-4,5α-epoxy-3,14-dihydroxymorphinan-6-one], in experiment [1], the cell migration result is “significant but moderate inhibitory effects”. Besides, the cell invasion result in experiment [2] is “decreased cell invasion”. In addition, in experiment [3], the “NK cell numbers in PBMC and spleen” value was “increased”. Also, the colony formation result in experiment [4] is “moderate inhibition”. Besides, in experiment [5], the “mean life span (survival)” value was 45 days.
For `CC(C)NCC(O)COc1cccc2ccccc12` (stereo not shown) [PRO, propranolol], in experiment [1], the cell migration result is reported as “significant but moderate inhibitory effects”. Also, the cell invasion entry in experiment [2] is “decreased cell invasion”. Also, the “NK cell numbers in PBMC and spleen” value in experiment [3] is listed as “increased”. Also, in experiment [3] (RT1B+ macrophages), the “macrophage numbers in spleen” value was “reduced”. Besides, the colony formation result in experiment [4] is listed as “moderate inhibition”. The “mean life span (survival)” value in experiment [5] is given as 45 days.

For the origin of these results see patent US20240390490A1, “PHARMACEUTICAL COMPOSITIONS FOR THE TREATMENT OF CANCERS” (Rutgers, The State University of New Jersey, priority 2021, published 2024).
